Experimental data: the CheMixHub ionic liquid set
“And” between values parts separate entries of the source, which are not always exact repeats. Identical values can stand only once.

Experiment: xn = mol fraction of the nth substance listed

CCCC[n+]1ccn(C)c1.[Br-] + O
Conditions	electrical conductivity [S/m]	viscosity
288.15 K, 100 kPa, x1 = 0.00126	–	1.159 mPa·s
293.15 K, 100 kPa, x1 = 0.0009002	–	1.033 mPa·s
293.15 K, 100 kPa, x1 = 0.001799	–	1.057 mPa·s
293.15 K, 100 kPa, x1 = 0.002696	–	1.069 mPa·s
298.15 K, 100 kPa, x1 = 0.0001802	–	0.916 mPa·s
298.15 K, 100 kPa, x1 = 0.0007203	–	0.921 mPa·s
298.15 K, 100 kPa, x1 = 0.0009002	–	0.918 mPa·s
298.15 K, 100 kPa, x1 = 0.00126	–	0.93 mPa·s
298.15 K, 100 kPa, x1 = 0.001799	–	0.938 mPa·s
298.15 K, 100 kPa, x1 = 0.002696	–	1 mPa·s
298.15 K, 101 kPa, x1 = 1.982e-05	–	0.888 mPa·s
298.15 K, 101 kPa, x1 = 3.243e-05	–	0.889 mPa·s
298.15 K, 101 kPa, x1 = 0.00999	3.16	–
298.15 K, 101 kPa, x2 = 0.9094	6.16	–
298.15 K, 101 kPa, x2 = 0.94	6.13	–
298.15 K, 101 kPa, x2 = 0.9612	5.7	–
298.15 K, 101 kPa, x2 = 0.9773	4.79	–
298.15 K, 101.3 kPa, x1 = 0.000902	–	0.911 mPa·s
298.15 K, 101.3 kPa, x1 = 0.0009056	–	0.91 mPa·s and 0.911 mPa·s
298.15 K, 101.3 kPa, x1 = 0.0009074	–	0.911 mPa·s
298.15 K, 101.3 kPa, x1 = 0.000911	–	0.91 mPa·s
298.15 K, 101.3 kPa, x1 = 0.00144	–	0.933 mPa·s and 0.936 mPa·s
298.15 K, 101.3 kPa, x1 = 0.001806	–	0.934 mPa·s and 0.935 mPa·s
298.15 K, 101.3 kPa, x1 = 0.001835	–	0.923 mPa·s
298.15 K, 101.3 kPa, x1 = 0.001856	–	0.932 mPa·s
298.15 K, 101.3 kPa, x1 = 0.0036	–	0.966 mPa·s
298.15 K, 101.3 kPa, x1 = 0.003602	–	0.961 mPa·s
298.15 K, 101.3 kPa, x1 = 0.003605	–	0.961 mPa·s and 0.963 mPa·s
298.15 K, 101.3 kPa, x1 = 0.005384	–	0.994 mPa·s
298.15 K, 101.3 kPa, x1 = 0.005411	–	0.997 mPa·s and 0.998 mPa·s
298.15 K, 101.3 kPa, x1 = 0.005432	–	1.004 mPa·s
303.15 K, 100 kPa, x1 = 0.0009002	–	0.823 mPa·s
303.15 K, 100 kPa, x1 = 0.001799	–	0.84 mPa·s
303.15 K, 100 kPa, x1 = 0.002696	–	0.905 mPa·s
303.15 K, 100 kPa, x1 = 0.05	–	2 mPa·s
303.15 K, 100 kPa, x1 = 0.0992	–	3.31 mPa·s
303.15 K, 100 kPa, x1 = 0.3882	–	31.2 mPa·s
308.15 K, 100 kPa, x1 = 0.0001802	–	0.751 mPa·s
308.15 K, 100 kPa, x1 = 0.0007203	–	0.756 mPa·s
308.15 K, 100 kPa, x1 = 0.0009002	–	0.753 mPa·s
308.15 K, 100 kPa, x1 = 0.00126	–	0.763 mPa·s
308.15 K, 100 kPa, x1 = 0.001799	–	0.758 mPa·s
308.15 K, 100 kPa, x1 = 0.002696	–	0.795 mPa·s
308.15 K, 101 kPa, x1 = 3.243e-05	–	0.723 mPa·s
308.15 K, 101 kPa, x1 = 6.584e-05	0.0466	0.727 mPa·s
308.15 K, 101 kPa, x1 = 6.667e-05	–	0.727 mPa·s
308.15 K, 101 kPa, x1 = 0.0001326	0.0915	0.735 mPa·s
308.15 K, 101.3 kPa, x1 = 0.000902	–	0.738 mPa·s
308.15 K, 101.3 kPa, x1 = 0.0009056	–	0.735 mPa·s and 0.736 mPa·s
308.15 K, 101.3 kPa, x1 = 0.0009074	–	0.737 mPa·s
308.15 K, 101.3 kPa, x1 = 0.000911	–	0.735 mPa·s
308.15 K, 101.3 kPa, x1 = 0.001806	–	0.752 mPa·s
308.15 K, 101.3 kPa, x1 = 0.001835	–	0.746 mPa·s and 0.747 mPa·s
308.15 K, 101.3 kPa, x1 = 0.001856	–	0.75 mPa·s
308.15 K, 101.3 kPa, x1 = 0.0036	–	0.776 mPa·s
308.15 K, 101.3 kPa, x1 = 0.003602	–	0.773 mPa·s
308.15 K, 101.3 kPa, x1 = 0.003605	–	0.77 mPa·s and 0.771 mPa·s
308.15 K, 101.3 kPa, x1 = 0.005384	–	0.798 mPa·s
308.15 K, 101.3 kPa, x1 = 0.005411	–	0.801 mPa·s
308.15 K, 101.3 kPa, x1 = 0.005432	–	0.802 mPa·s
310.15 K, 101.3 kPa, x1 = 0.000902	–	0.711 mPa·s
310.15 K, 101.3 kPa, x1 = 0.0009056	–	0.707 mPa·s
310.15 K, 101.3 kPa, x1 = 0.0009074	–	0.71 mPa·s
310.15 K, 101.3 kPa, x1 = 0.000911	–	0.707 mPa·s
310.15 K, 101.3 kPa, x1 = 0.001806	–	0.723 mPa·s
310.15 K, 101.3 kPa, x1 = 0.001835	–	0.717 mPa·s and 0.718 mPa·s
310.15 K, 101.3 kPa, x1 = 0.001856	–	0.723 mPa·s
310.15 K, 101.3 kPa, x1 = 0.0036	–	0.75 mPa·s
310.15 K, 101.3 kPa, x1 = 0.003602	–	0.746 mPa·s
310.15 K, 101.3 kPa, x1 = 0.003605	–	0.74 mPa·s and 0.742 mPa·s
310.15 K, 101.3 kPa, x1 = 0.005384	–	0.767 mPa·s
310.15 K, 101.3 kPa, x1 = 0.005411	–	0.767 mPa·s
310.15 K, 101.3 kPa, x1 = 0.005432	–	0.772 mPa·s
313.15 K, 100 kPa, x1 = 0.0009002	–	0.676 mPa·s
313.15 K, 100 kPa, x1 = 0.001799	–	0.689 mPa·s
313.15 K, 100 kPa, x1 = 0.002696	–	0.749 mPa·s
313.15 K, 100 kPa, x1 = 0.3882	–	20 mPa·s
313.15 K, 101.3 kPa, x1 = 0.00144	–	0.58 mPa·s and 0.695 mPa·s and 0.697 mPa·s
318.15 K, 100 kPa, x1 = 0.0001802	–	0.634 mPa·s
318.15 K, 100 kPa, x1 = 0.0007203	–	0.64 mPa·s
318.15 K, 100 kPa, x1 = 0.0009002	–	0.618 mPa·s and 0.619 mPa·s
318.15 K, 100 kPa, x1 = 0.00126	–	0.646 mPa·s
318.15 K, 100 kPa, x1 = 0.001799	–	0.631 mPa·s
318.15 K, 100 kPa, x1 = 0.002696	–	0.68 mPa·s
318.15 K, 101.3 kPa, x1 = 0.000902	–	0.611 mPa·s
318.15 K, 101.3 kPa, x1 = 0.0009056	–	0.608 mPa·s and 0.609 mPa·s
318.15 K, 101.3 kPa, x1 = 0.0009074	–	0.612 mPa·s
318.15 K, 101.3 kPa, x1 = 0.000911	–	0.608 mPa·s
318.15 K, 101.3 kPa, x1 = 0.001806	–	0.623 mPa·s
318.15 K, 101.3 kPa, x1 = 0.001835	–	0.619 mPa·s
318.15 K, 101.3 kPa, x1 = 0.001856	–	0.622 mPa·s
318.15 K, 101.3 kPa, x1 = 0.0036	–	0.643 mPa·s
318.15 K, 101.3 kPa, x1 = 0.003602	–	0.642 mPa·s
318.15 K, 101.3 kPa, x1 = 0.003605	–	0.638 mPa·s and 0.639 mPa·s
318.15 K, 101.3 kPa, x1 = 0.005384	–	0.659 mPa·s and 0.66 mPa·s
318.15 K, 101.3 kPa, x1 = 0.005411	–	0.66 mPa·s
318.15 K, 101.3 kPa, x1 = 0.005432	–	0.665 mPa·s
323.15 K, 100 kPa, x1 = 0.3882	–	14.6 mPa·s
333.15 K, 100 kPa, x1 = 0.05	–	1.04 mPa·s
333.15 K, 100 kPa, x1 = 0.0992	–	1.66 mPa·s
333.15 K, 100 kPa, x1 = 0.1979	–	3.69 mPa·s
333.15 K, 100 kPa, x1 = 0.2517	–	4.94 mPa·s
333.15 K, 100 kPa, x1 = 0.3882	–	10.6 mPa·s

CCCC[n+]1ccn(C)c1C.NCC(=O)[O-] + O
100 kPa
Conditions	viscosity [mPa·s]
293.15 K, x1 = 0.3904	66
298.15 K, x1 = 0.0999	13.7
298.15 K, x1 = 0.1982	22.2
298.15 K, x1 = 0.3003	34.6
298.15 K, x1 = 0.6	94
298.15 K, x1 = 0.6999	119
298.15 K, x1 = 0.798	146
303.15 K, x1 = 0.9001	125
308.15 K, x1 = 0.0999	7.8
308.15 K, x1 = 0.3003	20.2
308.15 K, x1 = 0.3904	28.4
308.15 K, x1 = 0.6999	65
313.15 K, x1 = 0.3904	23.4
313.15 K, x1 = 0.9001	71
318.15 K, x1 = 0.6999	46.4
318.15 K, x1 = 0.798	54
